These results are taken from article PMC8588536, “Iridal-Type Triterpenoids Displaying Human Neutrophil Elastase Inhibition and Anti-Inflammatory Effects from Belamcanda chinensis” (Molecules, 2021).

The target in assay [1] is T1, Human neutrophil elastase (HNE) (Homo sapiens, UniProt P08246).
T1 construct: purchased Sigma-Aldrich
T1 sequence (P08246 30-267): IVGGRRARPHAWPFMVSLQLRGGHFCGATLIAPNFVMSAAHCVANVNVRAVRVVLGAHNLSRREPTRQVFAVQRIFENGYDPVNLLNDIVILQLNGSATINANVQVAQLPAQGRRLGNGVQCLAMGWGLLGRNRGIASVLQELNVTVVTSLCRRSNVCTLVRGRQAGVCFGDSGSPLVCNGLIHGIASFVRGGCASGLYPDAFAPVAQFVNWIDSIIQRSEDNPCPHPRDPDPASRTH
The assay is described as follows: Fluorescence quenching binding affinity to HNE. As to conditions: inhibitor 7.8–31.2 µM; for Kd: read-out: KA (association constant of the complex of enzyme and quencher) (converted); for KSV (Stern-Volmer quenching constant): λEx 260 nm, λEm 280–400 nm. Here is the method: To measure fluorescence from the HNE enzyme, 10 μL of 0.01 unit/mL enzyme solution with 180 μL of Tris-HCl buffer (0.02 mM) was accurately added into the 96-well black immunoplates. Then, 10 μL of incremental concentrations (7.8–31.2 μΜ) of inhibitors were added into each well. All fluorescence spectra were measured from 280 to 400 nm with emission slits regulated to 2.0 nm, and the excitation wavelength was 260 nm. The Stern–Volmer quenching constant (KSV) was calculated using Equation (5). All experiments were conducted in triplicate, and the mean values were calculated. (5) […]=1+KSV[Q], where F0 and F are the fluorescence intensities in the absence and presence of quencher (Q). KSV is the Stern–Volmer quenching constant [LM^−1]. For static quenching, the correlation between the fluorescence intensity and the concentration of quencher for the series of reactions can be estimated by Equation (6). (6) log[(F0−F)/F]=logKA+nlog[Q]f.
F0 and F are the fluorescence intensities in the absence and presence of inhibitor; KA is the binding constant; n is the number of binding sites of the enzyme; Qf is the concentration of inhibitor.

Assay [2] has as its target T2, Human neutrophil elastase (HNE, EC 3.4.21.37) (Homo sapiens, UniProt P08246).
T2 construct: purchased Sigma-Aldrich
T2 sequence (P08246 30-267): T1 sequence (P08246 30-267)
The assay is described as follows: Human neutrophil elastase inhibition, spectrophotometric, MeOSuc-AAPV-pNA substrate. The class given is biochemical. As to conditions: for Ki: Dixon plots, read-out: Ki (inhibition constant); for Type of Inhibition: Lineweaver-Burk and Dixon plots, reversibility from activity vs enzyme concentration plots; for IC50: concentration that caused 50% enzyme activity loss, three sets of experiments. The procedure: Human neutrophil elastase (EC 3. 4. 21. 37) (Sigma-Aldrich, St. Louis, MO, USA) activity was measured in accordance with the previous description with subtle modification, by observing the formation of p-nitroaniline after the hydrolysis of N-methoxysuccinyl-Ala-Ala-Pro-Val-p-nitro anilide at 405 nm. The inhibitors were dissolved in dimethyl sulfoxide (DMSO) and diluted to a few concentrations. In brief, in a 96-well plate, 10 µL of inhibitor solution and 40 µL of 1.5 mM of MeOSuc-AAPV-pNA were added as a substrate in the 0.02 mM Tris-HCl buffer solutions (pH 8.0). Then, 20 µL of human neutrophil elastase (0.2 unit/mL) was added to the mixture. The test mixtures were incubated and mixed for 15 min at room temperature and then screened at 405 nm for 30 min every 30 s.
Activity (%) = 100 [1/(1 + ([I]/IC50))].(1)
The modalities of HNE inhibition were estimated in experiments using particular concentrations of the substrates and inhibitors, respectively. The Michaelis–Menten constant (Km) and maximal velocity (Vmax) were investigated by a Lineweaver–Burk plot. The KI, dissociation constants for inhibitor binding to the free enzyme were calculated using a Dixon plot. Equations (2)–(4) are representatives for deriving the aforementioned parameters. (2) 1/V=Km/Vmax(1+[I]/Ki)×1/S+1/Vmax (3) Slop=Km/KiVmax[I]+Km/Vmax (4) Intercept=1/KiVmax[I]+1/Vmax.

The test system of assay [3] is LPS-stimulated RAW264.7 cells. Nature of the assay: LPS-induced morphological changes (macrophage activation). The class given is cell-based, mouse. The conditions noted are these: pre-treatment 1 or 3 µg/mL. The procedure:
The mouse macrophage cell line RAW264.7 was obtained from the American Type Culture Collection (ATCC, Manassas, VA, USA). The cells were cultured in DMEM supplemented with 10% fetal bovine serum (FBS), penicillin (100 U/mL), and streptomycin (100 μg/mL) at 37 °C with 5% CO2. The medium was replaced every 2 days. After treatment with chemicals, the cell morphological changes were observed under a microscope and images are captured before cell viability assay.

In assay [4] the test system is IL-1β in LPS-stimulated RAW264.7 cells. The assay is described as follows: IL-1β concentration by ELISA. The conditions noted are these: 1 or 3 µg/mL 2 h prior to LPS 1 µg/mL for 16 h; n = 6, p < 0.05. The class given is cell-based, mouse. The procedure: (§1) RAW264.7 cell (2 × 10^5 cells/well) were cultured in a 6-well plate for 24 h and treated with compounds (1 or 3 µg/mL) 2 h prior to LPS treatment, followed by LPS (1 µg/mL) for 16 h. The concentration of pro-inflammatory cytokines in the collected supernatant was quantified using an ELISA kit (R&D system, Minneapolis, MN, USA) according to the manufacturer’s instructions. Briefly, 50 μL of assay diluent, sample, and standards were added to the ELISA well plate, which were pre-coated with anti-mouse IL-1β and TNF-α antibody. The plates were then covered with adhesive strip, agitated, and incubated for 2 h at room temperature. The ELISA well-plate was washed five times with a wash buffer, then 100 μL of mouse IL-1β and TNF-α conjugates was added and incubated at room temperature for 2 h. The plate was washed five times, 100 μL of substrate solution was added to each well, and incubated for 30 min in the dark. The reaction was quenched by the addition of 100 μL stop solution to each well, and the absorbance was read 450 nm/570 nm with an ELISA reader (Molecular Devices, Sunnyvale, CA, USA).

Assay [5] has as its system TNF-α in LPS-stimulated RAW264.7 cells. Nature of the assay: TNF-α concentration by ELISA. As to conditions: 1 or 3 µg/mL 2 h prior to LPS 1 µg/mL for 16 h; n = 6, p < 0.05. The class given is cell-based, mouse. Here is the method: as §1
Assay [6] concerns IL-1β mRNA in LPS-stimulated RAW264.7 cells. Nature of the assay: IL-1β mRNA expression by RT-PCR. The class given is cell-based, mouse. As to conditions: 1 or 3 µg/mL, n = 6, p < 0.05. Here is the method: Total RNA was isolated from cultured RAW264.7 cells using TRIzol reagent (Ambion®, Carlsbad, CA, USA) according to the manufacturer’s instructions. First strand cDNA was synthesized from the total RNA (3 μg) using oligo dT (DiaStar RT Kit, SolGent, Daejeon, Korea) and was used as a template for PCR amplification with G-Taq polymerase (Cosmogenetech, Seoul, Korea). The first-strand cDNA was quantified using a spectrophotometer (NanoDrop® ND-1000, NanoDrop Technologies, Wilmington, […], USA). The quantified cDNA was used as a template. PCR assay was performed with specific primers for inducible nitric oxide (iNOS), IL-1β, and TNF-α. The PCR steps included initial denaturation at 94 °C for 5 min, then 28 cycles at 94 °C for 30 s, 57 °C for 30 s, and 72 °C for 30 s, and a final extension step at 72 °C for 10 min. The amplified PCR products were separated in 1.5% agarose gel, and the gel was stained with ethidium bromide. The bands were visualized using the iBright^TM CL1500 imaging system (Thermo Scientific Fisher/Life Technologies Holdings Pte Ltd., Singapore). The DNA fragments were directly sequenced with the ABI PRISM® 3100-Avant Genetic Analyzer (Applied Biosystems, Carlsbad, CA, USA).

As to `CC(C)=CCC/C(C)=C/C[C@@H](O)/C(C)=C/CC[C@@]1(C)[C@H](CCCO)/C(=C(/C)C=O)CC[C@]1(C)O` [Compound 1, isoiridogermanal], in assay [1], the “n (number of binding sites of the enzyme)” value is listed as 1.0039, the Kd is 24.3 µM and the “KSV (Stern-Volmer quenching constant)” value was 41660 L/mol. In assay [2], the Ki amounted to 12.7 µM, the “Type of Inhibition” value was “noncompetitive inhibition” and the IC50 amounted to 14.4 ± 0.3 µM. The “effect on LPS-induced morphological changes” value in assay [3] is on record as “ameliorated”. In addition, the “LPS-upregulated IL-1β concentration” value in assay [4] is “noticeably decreased”. For the same molecule, in assay [5], the “LPS-upregulated TNF-α concentration” value was “noticeably decreased”. The “LPS-upregulated IL-1β mRNA level” value in assay [6] is on record as “noticeably decreased”.

As to `CC(C)=CCCC(C)=CCC(O)C(C)=CCCC1(C)C(CCCO)C(=C(C)C=O)CCC1(C)O` (centres unmarked) [Compound 2, iridobelamal A], in assay [1], the “n (number of binding sites of the enzyme)” value is listed as 0.9734, the Kd was 50.3 µM and the “KSV (Stern-Volmer quenching constant)” value was determined as 18160 L/mol. For the same molecule, in assay [2], the Ki came out at 24.9 µM, the “Type of Inhibition” value is on record as “noncompetitive inhibition” and the concentration for half-maximal inhibition (IC50) is 27 ± 0.6 µM. For the same molecule, the “effect on LPS-induced morphological changes” value in assay [3] is “ameliorated”. Moreover, the “LPS-upregulated IL-1β concentration” value in assay [4] is recorded as “noticeably decreased”. In assay [5], the “LPS-upregulated TNF-α concentration” value is given as “noticeably decreased”. In addition, the “LPS-upregulated IL-1β mRNA level” value in assay [6] was “noticeably decreased”.
